Results taken from patent publication US10709707B2, “Methods of treating ocular conditions” (Oyster Point Pharma, Inc., priority 2016, dated 2020).

Experiments:
[1] = 7-day pilot intranasal toxicity and toxicokinetic study in rats; details: for AUC(0-t): AUC0-t
Method: The study design was as follows:
The following parameters and end points were evaluated in this study; clinical signs, body weights, body weight gain, food consumption, ophthalmology, toxicokinetic parameters, gross necropsy findings, organ weights, and histopathologic examination of select tissues, including nasal cavity at levels I-IV and detailed ocular histopathology for all dose groups: histopathology for brain, pharynx, larynx, trachea, lung, and select target tissues (i.e., adrenal gland, liver, and spleen) that were identified in a GLP 13-week oral toxicity study in rats (DSE 2004-0356) in group 1 and 4 animals, and gross lesions.

Ames test = type: cell-based; details: in vitro
Excerpt: Compound 1 was negative for mutagenicity in both in vitro bioassays—including an Ames test, a micronucleus test in mouse lymphoma cells, and a chromosome aberration assay using cultured human peripheral blood lymphocytes—and an in vivo rat bone marrow micronucleus test.

[2] = Female, Day 1, 0.9 mg/day (0.5%), intranasal TID
[3] = Female, Day 1, 3.6 mg/day (2%), intranasal TID
[4] = Female, Day 1, 10.8 mg/day (6%), intranasal TID
[5] = Female, Day 7, 0.9 mg/day (0.5%), intranasal TID
[6] = Female, Day 7, 3.6 mg/day (2%), intranasal TID
[7] = Female, Day 7, 10.8 mg/day (6%), intranasal TID
[8] = Male, Day 1, 0.9 mg/day (0.5%), intranasal TID
[9] = Male, Day 1, 3.6 mg/day (2%), intranasal TID
[10] = Male, Day 1, 10.8 mg/day (6%), intranasal TID
[11] = Male, Day 7, 0.9 mg/day (0.5%), intranasal TID
[12] = Male, Day 7, 3.6 mg/day (2%), intranasal TID
[13] = Male, Day 7, 10.8 mg/day (6%), intranasal TID
[14] = female, rat, plasma, inhaled or intranasal, 0.9 mg/day, Female, Day 1, 0.9 mg/day (0.5%), intranasal TID
[15] = female, rat, plasma, inhaled or intranasal, 0.9 mg/day, Female, Day 7, 0.9 mg/day (0.5%), intranasal TID
[16] = female, rat, plasma, inhaled or intranasal, 3.6 mg/day, Female, Day 1, 3.6 mg/day (2%), intranasal TID
[17] = female, rat, plasma, inhaled or intranasal, 3.6 mg/day, Female, Day 7, 3.6 mg/day (2%), intranasal TID
[18] = female, rat, plasma, inhaled or intranasal, 10.8 mg/day, Female, Day 1, 10.8 mg/day (6%), intranasal TID
[19] = female, rat, plasma, inhaled or intranasal, 10.8 mg/day, Female, Day 7, 10.8 mg/day (6%), intranasal TID
[20] = male, rat, plasma, inhaled or intranasal, 0.9 mg/day, Male, Day 1, 0.9 mg/day (0.5%), intranasal TID
[21] = male, rat, plasma, inhaled or intranasal, 0.9 mg/day, Male, Day 7, 0.9 mg/day (0.5%), intranasal TID
[22] = male, rat, plasma, inhaled or intranasal, 3.6 mg/day, Male, Day 1, 3.6 mg/day (2%), intranasal TID
[23] = male, rat, plasma, inhaled or intranasal, 3.6 mg/day, Male, Day 7, 3.6 mg/day (2%), intranasal TID
[24] = male, rat, plasma, inhaled or intranasal, 10.8 mg/day, Male, Day 1, 10.8 mg/day (6%), intranasal TID
[25] = male, rat, plasma, inhaled or intranasal, 10.8 mg/day, Male, Day 7, 10.8 mg/day (6%), intranasal TID

## C(=C\[C@H]1CCNC1)/c1cncnc1 [Compound 1, (R)-5-((E)-2-pyrrolidin-3-ylvinyl)pyrimidine]
[1]; [2]
  C1 (peak concentration following 1st instillation): 26.1 ng/mL
  C2 (peak concentration following 2nd instillation): 34.8 ng/mL
  C3 (peak concentration following 3rd instillation): 34.9 ng/mL
  DN AUC0-t (dose-normalized): 154 (ng*h/mL)/(mg)
[1]; [3]
  C1 (peak concentration following 1st instillation): 50.2 ng/mL
  C2 (peak concentration following 2nd instillation): 119 ng/mL
  C3 (peak concentration following 3rd instillation): 278 ng/mL
  DN AUC0-t (dose-normalized): 174 (ng*h/mL)/(mg)
[1]; [4]
  C1 (peak concentration following 1st instillation): 326 ng/mL
  C2 (peak concentration following 2nd instillation): 481 ng/mL
  C3 (peak concentration following 3rd instillation): 329 ng/mL
  DN AUC0-t (dose-normalized): 386 (ng*h/mL)/(mg)
[1]; [5]
  C1 (peak concentration following 1st instillation): 20.3 ng/mL
  C2 (peak concentration following 2nd instillation): 16.3 ng/mL
  C3 (peak concentration following 3rd instillation): 37.5 ng/mL
  DN AUC0-t (dose-normalized): 164 (ng*h/mL)/(mg)
[1]; [6]
  C1 (peak concentration following 1st instillation): 68.0 ng/mL
  C2 (peak concentration following 2nd instillation): 79.9 ng/mL
  C3 (peak concentration following 3rd instillation): 76.0 ng/mL
  DN AUC0-t (dose-normalized): 93.5 (ng*h/mL)/(mg)
[1]; [7]
  C1 (peak concentration following 1st instillation): 218 ng/mL
  C2 (peak concentration following 2nd instillation): 224 ng/mL
  C3 (peak concentration following 3rd instillation): 210 ng/mL
  DN AUC0-t (dose-normalized): 137 (ng*h/mL)/(mg)
[1]; [8]
  C1 (peak concentration following 1st instillation): 51.9 ng/mL
  C2 (peak concentration following 2nd instillation): 36.3 ng/mL
  C3 (peak concentration following 3rd instillation): 54.2 ng/mL
[1]; [9]
  C1 (peak concentration following 1st instillation): 86.4 ng/mL
  C2 (peak concentration following 2nd instillation): 343 ng/mL
  C3 (peak concentration following 3rd instillation): 134 ng/mL
  DN AUC0-t (dose-normalized): 230 (ng*h/mL)/(mg)
[1]; [10]
  C1 (peak concentration following 1st instillation): 208 ng/mL
  C2 (peak concentration following 2nd instillation): 332 ng/mL
  C3 (peak concentration following 3rd instillation): 924 ng/mL
  DN AUC0-t (dose-normalized): 157 (ng*h/mL)/(mg)
[1]; [11]
  C1 (peak concentration following 1st instillation): 12.4 ng/mL
  C2 (peak concentration following 2nd instillation): 28.0 ng/mL
  C3 (peak concentration following 3rd instillation): 33.7 ng/mL
[1]; [12]
  C1 (peak concentration following 1st instillation): 110 ng/mL
  C2 (peak concentration following 2nd instillation): 53.8 ng/mL
  C3 (peak concentration following 3rd instillation): 25.5 ng/mL
  DN AUC0-t (dose-normalized): 82.7 (ng*h/mL)/(mg)
[1]; [13]
  C1 (peak concentration following 1st instillation): 166 ng/mL
  C2 (peak concentration following 2nd instillation): 209 ng/mL
  C3 (peak concentration following 3rd instillation): 225 ng/mL
  DN AUC0-t (dose-normalized): 81.3 (ng*h/mL)/(mg)
[1]; both, rat, plasma, inhaled or intranasal
  half-life: 1.4 h
[1]; [14]
  AUC(0-t): 138 ng·h/mL
  Cmax: 34.9 ng/mL
  Tmax: 12.1 h
[1]; [15]
  AUC(0-t): 148 ng·h/mL
  Cmax: 37.5 ng/mL
  Tmax: 12.1 h
[1]; [16]
  AUC(0-t): 626 ng·h/mL
  Cmax: 278 ng/mL
  Tmax: 12.1 h
[1]; [17]
  AUC(0-t): 336 ng·h/mL
  Cmax: 79.9 ng/mL
  Tmax: 6.08 h
[1]; [18]
  AUC(0-t): 4170 ng·h/mL
  Cmax: 481 ng/mL
  Tmax: 6.08 h
[1]; [19]
  AUC(0-t): 1480 ng·h/mL
  Cmax: 224 ng/mL
  Tmax: 6.08 h
[1]; [20]
  Cmax: 54.2 ng/mL
  Tmax: 12.1 h
[1]; [21]
  Cmax: 33.7 ng/mL
  Tmax: 12.1 h
[1]; [22]
  AUC(0-t): 829 ng·h/mL
  Cmax: 343 ng/mL
  Tmax: 6.08 h
[1]; [23]
  AUC(0-t): 298 ng·h/mL
  Cmax: 110 ng/mL
  Tmax: 0.083 h
[1]; [24]
  AUC(0-t): 1700 ng·h/mL
  Cmax: 924 ng/mL
  Tmax: 12.1 h
[1]; [25]
  AUC(0-t): 878 ng·h/mL
  Cmax: 225 ng/mL
  Tmax: 12.1 h
[1]; rat, intranasal TID, post administration
  time of peak systemic exposure after each instillation: 5 min
[1]; rats, intranasal 0.5%, 2% and 6%, 3 times per day for 7 days
  survival: survival of all animals to scheduled euthanasia
[1]; rats, intranasal 3 times per day for 7 days
  no-observed-adverse-effect-level (NOAEL): 180 μL 6% Compound 1 per animal per day
Ames test
  mutagenicity, Ames test: negative
